This note sets out measurements from patent US20060281798A1, “Methods of using thiazolidinedithione derivatives” (QLT Inc., priority 2002, published 2006).

Holding throughout (format): cell-based
One test relates to H460 Cells. Nature of the test: Cell proliferation (3H-thymidine incorporation), H460. The following applies: Homo sapiens, NCI-H460, 24 hours. From the text:
(§1) This procedure (Jelinkova, R. B. et al., “Antiproliferative effect of a lectin- and anti-Thy-1.2 antibody-targeted HPMA copolymer-bound doxorubicin on primary and metastatic human colorectal carcinoma and on human colorectal carcinoma transfected with the mouse Thy-1.2 gene”, Bioconjug. Chem. (2000, September-October), Vol. 11, No. 5, pp. 664-73) is used to assess the effect compounds have on various cell lines with respect to proliferation. The rate of anchorage-independent growth of various tumor cells is quantified by measuring the amount of free isotopic thymidine that has been incorporated into the cells over a period of time. The effect of any compound to inhibit the proliferation of various tumor cells could be used as an indication of its ability to prevent disease progression in cancer.
(§2) Cultured tumour cells are harvested cells as per normal procedures: i.e. trypsinize, centrifuge and count cells. […]
(§3) After incubation, plates are observed under the microscope for obvious cell death, abnormal cell shape, crystal formation of the compound, etc. […] Finally, 100 μL of scintillation fluid is added to each well and the plates are counted in a Wallac 1450 Microbeta™ counter according to user manual instructions.
(§4) The amount of inhibition is determined by the following formula: % inhibition=100−[(AVG treatment−AVG positive control)/[…]]
Background: Dividing cells build labelled thymidine or BrdU into new DNA.

The test system of the next test is PC3 Cells. Put plainly: Cell proliferation (3H-thymidine incorporation), PC3. The following applies: Homo sapiens, PC-3, 24 hours.
From the text: as §1, §2, §3, §4

For test [1], the system named is PC3 cells, PTPN12 mouse embryonic fibroblasts (MEFs). Nature of the test: Cell migration in a Boyden chamber. The following applies: PC-3, cell line of Table 2 not stated. From the text: A range of cell lines are used in this assay, particularly the prostate cancer cell line PC3 and PTPN12 mouse embryonic fibroblasts (MEFs). The role of PTPN12 in migration was established based on the observations of PTPN12 negative MEFs. Cell adhesion and migration are dynamic biological activities involving the assembly and disassembly of a large number of extracellular and intracellular molecules, for example, actin, which are regulated in turn by protein phosphorylation. […] Migration is reduced in PTPN12 knock-out MEFs. By extension, a PTPN12 inhibitor should reduce cell migration in a Boyden chamber. Therefore, as a readout for PTPN12 activity, the following assay is designed to analyze cell migration in Boyden chambers. […]
For tumour cell lines, stock cells (i.e. PC3 cells) are grown to 50-70% confluency in T175 flasks. […] Fluorescence of migrated cells is read in a Fluoroskan Ascent FL™ (or equivalent) with bottom reading at excitation/emission wavelength of 485/538 nm. Only those cells that have migrated through the pores of the FluoroBlok™ membrane will be read. […]
Data is expressed as fluorescence unit (FU) from the sum of middle 25 areas per 24-well or as percentage of migration inhibition by following formula: % of invasion inhibition=100−FU of compound treated cell invasion/FU of DMSO treated cell invasion times 100. […]

Each structure is given as a SMILES string.

As usually defined, the inhibition is the drop in the measured response relative to a control, in per cent. A low value points to a weak effect. As for `S=C1NC(=S)C(=Cc2ccc(-c3ccc(Br)cc3)o2)S1` [5-[5-(4-Bromophenyl)-furan-2-ylmethylene]-thiazolidine-2,4-dithione], the inhibition at 50 µM was determined as 89% in the test with H460 Cells and 15% in the test with PC3 Cells. In test [1], this molecule yielded an inhibition at 25 µM of 65%.
